Assay results published in patent US20210283139A1, “BIFUNCTIONAL MOLECULES FOR TARGETING UCHL5” (AMPHISTA THERAPEUTICS LTD, priority 2018, published 2021).

Legend:
Assay type in all cases: cell-based
Brd4 (L) [1] = molecular target: T1, Brd4 (L) (Homo sapiens, UniProt O60885); test: Concentration-dependent BET degradation, immunoblot, HEK293 cells; conditions: 6 h treatment, 1 nM-10 μM, read-out: Dmax (%) maximum degradation observed
T1 construct: endogenous in cells; host or cells: HEK293, HeLa
Method: (§1) Cell culture. HeLa (CCL-2) and HEK293 (CRL-1573) cells were purchased from ATCC and cultured in DMEM medium (Gibco) supplemented with 10% FBS, 100 μg/mL penicillin/streptomycin and L-glutamine. Cells were grown at 37° C. and 5% CO2, and were kept no longer than 30 passages. All cell lines were routinely tested for mycoplasma contamination using MycoAlert kit from Lonza.
(§2) Immunoblotting. proteins were separated by SDS-PAGE on NuPage 4-12% Bis-Tris gels, followed by transfer to Amersham Protran 0.45 NC nitrocellulose membrane (GE Healthcare) using wet transfer. Membranes were blocked using 5% w/v milk in Tris-buffered saline (TBS) with 0.1% Tween-20. Blots were probed (overnight at 4° C.) using anti-Brd2 (Abcam ab139690, 1:2,000 dilution), anti-Brd3 (Abcam ab50818, 1:500 dilution), and anti-Brd4 (Abcam ab128874, 1:1,000 dilution) primary antibodies, as appropriate. The next day, blots were washed with TBST and incubated (1 hr at RT) with anti-Tubulin hFAB-rhodamine (BioRad, 12004166) primary antibody, and either anti-rabbit IRDye 800CW (Licor 1:10,000 dilution) or anti-mouse IRDye 800CW (Licor 1:10,000 dilution) secondary antibody. Blots were developed using a Bio-Rad ChemiDoc MP Imaging System, and band quantification was performed using Image Studio software (LiCor). Band intensities were normalized to the tubulin loading control and reported as % of the average 0.1% DMSO vehicle intensity. Degradation data was plotted and analysed using Prism (Graphpad, version 8).
(§3) HeLa (5×10^5) and HEK293 (1×10^6) cells were seeded in standard 6-well plates (2 mL medium) overnight before treatment with compounds at the desired concentration (1 nM-10 μM), with a final DMSO concentration of 0.1% v/v. After 6 h treatment time, cells were washed with DPBS (Gibco) and lysed using 85 μL RIPA buffer (Sigma-Aldrich) supplemented with cOmplete Mini EDTA-free protease inhibitor cocktail (Roche) and benzonase. Lysates were clarified by centrifugation (20,000g, 10 min, 4° C.) and the total protein content of the supernatant was quantified using a Bradford colorimetric assay. Samples were prepared using equal amounts of total protein and LDS sample buffer (Invitrogen.
(§4) Representative blots in FIG. 3 show depletion of Brd2, Brd3 and Brd4 protein levels following treatment with increasing concentrations of representative compounds. Band intensities were normalized to the β-tubulin loading control and reported as % of the average 0.1% DMSO vehicle intensity, with each point representing mean±SEM of two independent experiments (n=2). Degradation data was plotted and analysed using Prism (Graphpad, version 8)

Brd4 (S) [2] = molecular target: T2, Brd4 (S) (Homo sapiens, UniProt O60885); test: as above; conditions: 6 h treatment, 1 nM-10 μM, read-out: Dmax (%) maximum degradation observed
T2 construct: endogenous in cells; host or cells: HEK293, HeLa
Method: as §1, §2, §3, §4

Brd4 (L) [3] = molecular target: T1, Brd4 (L); test: Concentration-dependent BET degradation, immunoblot, HeLa cells; conditions: 6 h treatment, 1 nM-10 μM, read-out: Dmax (%) maximum degradation observed
Method: as §1, §2, §3, §4

Brd4 (S) [4] = molecular target: T2, Brd4 (S); test: as above; conditions: 6 h treatment, 1 nM-10 μM, read-out: Dmax (%) maximum degradation observed
Method: as §1, §2, §3, §4

Brd4 [5] = molecular target: T3, Brd4 (Homo sapiens, UniProt O60885); test: Negative SAR: Brd4 immunoblot in HEK293 cells, active vs negative control; conditions: HEK293, 1 μM, 6 h, three independent treatments
T3 construct: endogenous in cells; host or cells: HEK293, HAP1, MV4-11
Method: as §2
HEK293 (1×10^6) cells incubated with DMSO, 1 μM 05IB11 or 1 μM 05IB6 for 6 h with a final DMSO concentration of 0.1% v/v. Cells from three independent treatments (n=3) were lysed with RIPA buffer and immunoblotted for Brd4 and β-tubulin.

Brd2 [6] = molecular target: T4, Brd2 (Homo sapiens, UniProt P25440); test: Concentration-dependent BET degradation, immunoblot, HeLa cells; design: endogenous in cells; host or cells: HeLa; conditions: Brd2, 6 h treatment, 1 nM-10 μM, read-out: Dmax (%) maximum degradation observed
T4 sequence (P25440 whole entry): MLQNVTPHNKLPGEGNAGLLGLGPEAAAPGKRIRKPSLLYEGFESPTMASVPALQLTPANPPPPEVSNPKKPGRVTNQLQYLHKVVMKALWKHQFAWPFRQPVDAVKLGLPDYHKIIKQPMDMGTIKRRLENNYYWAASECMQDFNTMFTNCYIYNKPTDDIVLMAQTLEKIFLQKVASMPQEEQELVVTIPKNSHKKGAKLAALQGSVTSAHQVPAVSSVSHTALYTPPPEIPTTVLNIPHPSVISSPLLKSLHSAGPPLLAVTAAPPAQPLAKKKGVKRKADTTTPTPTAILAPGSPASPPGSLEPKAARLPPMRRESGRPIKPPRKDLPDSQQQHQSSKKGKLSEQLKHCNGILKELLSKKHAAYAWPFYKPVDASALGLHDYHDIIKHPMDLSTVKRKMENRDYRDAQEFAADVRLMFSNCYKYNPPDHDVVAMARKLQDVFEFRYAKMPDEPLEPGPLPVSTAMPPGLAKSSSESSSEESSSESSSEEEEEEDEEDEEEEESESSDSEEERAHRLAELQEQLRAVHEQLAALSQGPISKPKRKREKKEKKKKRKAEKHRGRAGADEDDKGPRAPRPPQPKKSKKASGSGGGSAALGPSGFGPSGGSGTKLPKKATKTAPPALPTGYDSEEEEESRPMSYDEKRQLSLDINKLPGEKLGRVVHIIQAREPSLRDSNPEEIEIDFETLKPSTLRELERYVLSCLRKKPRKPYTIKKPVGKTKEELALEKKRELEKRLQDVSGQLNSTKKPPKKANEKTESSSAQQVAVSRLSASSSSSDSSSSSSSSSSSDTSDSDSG
Method: as §1, §2, §3, §4

Brd3 [7] = molecular target: T5, Brd3 (Homo sapiens, UniProt Q15059); test: as above; design: endogenous in cells; host or cells: HeLa; conditions: Brd3, 6 h treatment, 1 nM-10 μM
T5 sequence (Q15059 whole entry): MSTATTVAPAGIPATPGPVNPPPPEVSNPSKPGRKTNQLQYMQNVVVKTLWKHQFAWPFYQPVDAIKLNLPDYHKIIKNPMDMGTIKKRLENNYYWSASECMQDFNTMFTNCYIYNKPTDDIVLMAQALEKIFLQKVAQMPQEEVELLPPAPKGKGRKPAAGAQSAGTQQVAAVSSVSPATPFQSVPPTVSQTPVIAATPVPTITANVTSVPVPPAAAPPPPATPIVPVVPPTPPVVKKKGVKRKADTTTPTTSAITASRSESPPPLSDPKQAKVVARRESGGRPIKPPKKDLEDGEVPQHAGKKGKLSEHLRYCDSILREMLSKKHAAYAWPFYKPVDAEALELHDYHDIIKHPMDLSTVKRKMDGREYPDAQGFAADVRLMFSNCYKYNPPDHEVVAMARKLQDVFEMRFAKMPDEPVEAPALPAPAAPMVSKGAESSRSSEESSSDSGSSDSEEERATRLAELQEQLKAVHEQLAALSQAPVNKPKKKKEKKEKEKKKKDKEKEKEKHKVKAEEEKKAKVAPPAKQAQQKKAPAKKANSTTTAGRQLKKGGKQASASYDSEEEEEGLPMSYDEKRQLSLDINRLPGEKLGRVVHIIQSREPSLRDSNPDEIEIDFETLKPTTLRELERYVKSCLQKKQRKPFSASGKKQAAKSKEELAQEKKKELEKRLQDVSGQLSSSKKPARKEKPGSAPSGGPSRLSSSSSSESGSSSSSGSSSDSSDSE
Method: as §1, §2, §3, §4

Brd2 [8] = molecular target: T4, Brd2; test: Concentration-dependent BET degradation, immunoblot, HEK293 cells; design: endogenous in cells; host or cells: HEK293; conditions: HEK293, Brd2, 6 h treatment, 1 nM-10 μM; read-out: Dmax (%) maximum degradation observed
Method: as §1, §2, §3, §4

Brd3 [9] = molecular target: T5, Brd3; test: as above; design: endogenous in cells; host or cells: HEK293; conditions: HEK293, Brd3, 6 h treatment, 1 nM-10 μM
Method: as §1, §2, §3, §4

Brd4 [10] = molecular target: T3, Brd4; test: Proteasome dependency of Brd4 degradation in HEK293 cells (bortezomib pre-treatment); conditions: HEK293, 1 μM, 6 h
Method: as §2
(§5) HEK293 (1×10^6) cells were seeded in standard 6-well plates (2 mL medium) overnight before pre-treatment with 10 μM bortezomib. After a 0.5 h pre-incubation time, cells were subsequently treated with vehicle, 1 μM MZ1 or 1 μM 05IB6, yielding a final overall DMSO concentration of 0.2% v/v. After 6 h incubation, cells were washed with DPBS (Gibco) and lysed using 85 μL RIPA buffer (Sigma-Aldrich) supplemented with cOmplete Mini EDTA-free protease inhibitor cocktail (Roche) and benzonase. Lysates were clarified by centrifugation (20,000 g, 10 min, 4° C.) and the total protein content of the supernatant was quantified using a Bradford colorimetric assay. Samples were prepared using equal amounts of total protein and LDS sample buffer (Invitrogen).

Brd4 [11] = molecular target: T3, Brd4; test: Mechanistic evaluation of Brd4 degradation in HEK293 cells (degrasyn or I-BET726 pre-treatment); conditions: 6 h
Method: as §2
as §5, with “with inhibitors (5” for “with 10”, “μM degrasyn or 1 μM I-BET726).” for “μM bortezomib.”, “vehicle, 0.1” for “vehicle, 1”, “or 0.1” for “or 1”, “μM 05IB9,” for “μM 05IB6,”

Brd4 [12] = molecular target: T3, Brd4; test: Mechanistic evaluation of Brd4 degradation in HAP1 cells (bortezomib, degrasyn or I-BET726 pre-treatment); conditions: 6 h
Method: as §2
as §5, with “HAP1 (1×10^6)” for “HEK293 (1×10^6)”, “with inhibitors (10” for “with 10”, “μM bortezomib, 5 μM degrasyn or 1 μM I-BET726).” for “μM bortezomib.”, “vehicle, 0.1” for “vehicle, 1”, “or 0.1” for “or 1”, “μM 05IB9,” for “μM 05IB6,”
Representative blots from HAP1 lysates in FIG. 9 show depletion of Brd4 protein levels following 6 h treatment with 0.1 μM 05IB9 or MZ1, in the presence and absence of 5 μM degrasyn and 10 μM bortezomib. Brd4 band intensities were normalized to β-tubulin loading control and reported in FIG. 9B as % of the average 0.1% DMSO vehicle intensity. Each bar is mean±SEM of three independent experiments performed in duplicate (n=3). […] Furthermore, excess […] competes with 05IB9, resulting in reduced degradation of Brd4.

[13] = read-out: Dmax (%) maximum degradation observed

## CCCC(NC(=O)/C=C/c1cccc(Br)n1)c1ccc(OCCOCCOCCOCCOCCOCCOCCNC(=O)c2ccc(-c3ccc4c(c3)[C@H](Nc3ccc(Cl)cc3)C[C@H](C)N4C(C)=O)cc2)cc1 (stereo partly shown) [Example 05IB11]
Brd4 (L) [1]
  Dmax: ≤ 25%
Brd4 (S) [2]
  Dmax: 26 to 50%
Brd4 (L) [3]
  Dmax: ≤ 25%
Brd4 (S) [4]
  Dmax: ≤ 25%
Brd4 [5]
  Brd4 levels: minimal depletion
Brd2 [6]
  Dmax: ≤ 25%
Brd3 [7]
  DC50: 51 to 500 nM
Brd3 [7]; [13]
  Dmax: 26 to 50%
Brd2 [8]
  Dmax: ≤ 25%
Brd3 [9]
  DC50: ≤ 50 nM
Brd3 [9]; [13]
  Dmax: ≤ 25%

## Cc1ncsc1-c1ccc(CNC(=O)[C@@H]2C[C@@H](O)CN2C(=O)[C@@H](NC(=O)COCCOCCOCCNC(=O)C[C@@H]2N=C(c3ccc(Cl)cc3)c3c(sc(C)c3C)-n3c(C)nnc32)C(C)(C)C)cc1 [MZ1, reference compound]
Brd4 [10]
  Brd4 protein levels: depletion
Brd4 [11]; HEK293, 0.1 μM compound, 0.5 h pre-treatment with 5 μM degrasyn or 1 μM I-BET726
  Brd4 degradation in the presence of degrasyn or I-BET726: only blocked by I-BET726
Brd4 [11]; HEK293, 0.1 μM
  Brd4 protein levels: depletion
Brd4 [12]; HAP1, 0.1 μM compound, 0.5 h pre-treatment with 10 μM bortezomib or 5 μM degrasyn
  Brd4 degradation in the presence of bortezomib or degrasyn: only blocked by bortezomib
Brd4 [12]; HAP1, 0.1 μM
  Brd4 protein levels: depletion
